Results: ChEMBL document CHEMBL1201862, “PubChem BioAssay data set” (2004)
Active and inactive are the calls of the source.

How the values were obtained:
[1] = biological target: Tyrosyl-DNA phosphodiesterase 2 (Homo sapiens, UniProt O95551); assay: human TDP2 enzyme inhibitors, dose response, biochemical, epi absorbance, IC50 (AID 743297)
[2] = biological target: Serine/threonine-protein kinase Nek2 (Homo sapiens, UniProt P51955); assay type: functional
[3] = biological target: LIM domain kinase 1 (Homo sapiens, UniProt P53667); assay: Navigating the Kinome. Panel member name: LIMK1; assay type: functional
Sequence of LIM domain kinase 1 (P53667 whole entry, the tested form may be a part): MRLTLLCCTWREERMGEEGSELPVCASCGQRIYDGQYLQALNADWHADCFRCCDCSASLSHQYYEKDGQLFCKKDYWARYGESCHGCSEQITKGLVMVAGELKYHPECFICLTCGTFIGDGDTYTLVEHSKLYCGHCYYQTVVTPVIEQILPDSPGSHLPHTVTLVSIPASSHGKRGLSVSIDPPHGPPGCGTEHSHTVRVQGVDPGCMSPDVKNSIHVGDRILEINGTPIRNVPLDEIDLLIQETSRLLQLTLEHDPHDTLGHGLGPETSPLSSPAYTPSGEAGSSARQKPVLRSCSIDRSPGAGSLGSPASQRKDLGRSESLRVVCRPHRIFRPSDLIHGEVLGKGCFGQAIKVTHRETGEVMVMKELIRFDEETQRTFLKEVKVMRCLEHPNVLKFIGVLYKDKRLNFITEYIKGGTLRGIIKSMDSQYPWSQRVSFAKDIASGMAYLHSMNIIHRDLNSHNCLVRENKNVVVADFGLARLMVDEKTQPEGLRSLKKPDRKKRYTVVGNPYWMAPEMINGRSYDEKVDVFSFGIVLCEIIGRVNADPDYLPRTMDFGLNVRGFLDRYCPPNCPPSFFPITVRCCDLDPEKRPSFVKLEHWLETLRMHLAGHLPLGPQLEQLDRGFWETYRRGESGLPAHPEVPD

[4] = biological target: MAP/microtubule affinity-regulating kinase 3 (Homo sapiens, UniProt P27448); assay type: functional;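 note: MARK3 affinity measured as one member of a kinome panel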
Sequence of MAP/microtubule affinity-regulating kinase 3 (P27448 whole entry): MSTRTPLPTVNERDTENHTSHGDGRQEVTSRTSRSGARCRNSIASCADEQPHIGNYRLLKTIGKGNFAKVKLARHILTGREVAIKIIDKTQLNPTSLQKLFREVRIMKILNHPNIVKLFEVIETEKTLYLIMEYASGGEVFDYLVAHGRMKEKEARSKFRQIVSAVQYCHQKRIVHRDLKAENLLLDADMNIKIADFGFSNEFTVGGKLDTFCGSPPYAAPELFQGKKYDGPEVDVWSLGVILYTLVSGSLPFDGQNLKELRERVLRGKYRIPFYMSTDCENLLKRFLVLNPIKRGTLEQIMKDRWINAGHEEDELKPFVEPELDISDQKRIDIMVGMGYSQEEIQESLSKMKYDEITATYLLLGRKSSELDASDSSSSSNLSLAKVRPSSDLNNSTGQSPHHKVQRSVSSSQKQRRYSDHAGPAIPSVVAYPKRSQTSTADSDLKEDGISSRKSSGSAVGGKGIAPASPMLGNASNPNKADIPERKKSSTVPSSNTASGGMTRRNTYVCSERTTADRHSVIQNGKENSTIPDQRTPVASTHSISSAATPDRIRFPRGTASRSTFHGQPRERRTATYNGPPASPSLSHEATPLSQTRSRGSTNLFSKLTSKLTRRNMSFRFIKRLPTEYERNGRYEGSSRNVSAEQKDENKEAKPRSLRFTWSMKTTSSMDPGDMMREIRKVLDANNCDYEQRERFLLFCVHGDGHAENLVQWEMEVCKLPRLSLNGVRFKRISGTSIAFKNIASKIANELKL

[5] = biological target: Mitogen-activated protein kinase 10 (Homo sapiens, UniProt P53779); assay: Navigating the Kinome. Panel member name: MAPK10; assay type: functional
Sequence of Mitogen-activated protein kinase 10 (P53779 whole entry): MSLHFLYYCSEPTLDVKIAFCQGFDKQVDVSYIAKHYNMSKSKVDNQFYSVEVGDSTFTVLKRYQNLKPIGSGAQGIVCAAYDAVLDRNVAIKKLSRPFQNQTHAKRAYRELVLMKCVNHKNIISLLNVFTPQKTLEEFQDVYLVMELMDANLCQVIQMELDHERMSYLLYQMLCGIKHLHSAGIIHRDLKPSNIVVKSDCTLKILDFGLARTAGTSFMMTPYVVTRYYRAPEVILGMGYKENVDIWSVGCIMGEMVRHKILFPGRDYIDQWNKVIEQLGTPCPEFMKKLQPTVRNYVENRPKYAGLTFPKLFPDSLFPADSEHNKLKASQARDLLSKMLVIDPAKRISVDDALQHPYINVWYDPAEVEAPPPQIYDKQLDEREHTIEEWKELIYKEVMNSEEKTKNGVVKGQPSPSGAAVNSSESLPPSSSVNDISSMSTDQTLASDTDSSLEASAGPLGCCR

[6] = biological target: Mast/stem cell growth factor receptor Kit (Homo sapiens, UniProt P10721); assay type: functional;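 note: KIT entry within a kinase panel assay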
Sequence of Mast/stem cell growth factor receptor Kit (P10721 whole entry): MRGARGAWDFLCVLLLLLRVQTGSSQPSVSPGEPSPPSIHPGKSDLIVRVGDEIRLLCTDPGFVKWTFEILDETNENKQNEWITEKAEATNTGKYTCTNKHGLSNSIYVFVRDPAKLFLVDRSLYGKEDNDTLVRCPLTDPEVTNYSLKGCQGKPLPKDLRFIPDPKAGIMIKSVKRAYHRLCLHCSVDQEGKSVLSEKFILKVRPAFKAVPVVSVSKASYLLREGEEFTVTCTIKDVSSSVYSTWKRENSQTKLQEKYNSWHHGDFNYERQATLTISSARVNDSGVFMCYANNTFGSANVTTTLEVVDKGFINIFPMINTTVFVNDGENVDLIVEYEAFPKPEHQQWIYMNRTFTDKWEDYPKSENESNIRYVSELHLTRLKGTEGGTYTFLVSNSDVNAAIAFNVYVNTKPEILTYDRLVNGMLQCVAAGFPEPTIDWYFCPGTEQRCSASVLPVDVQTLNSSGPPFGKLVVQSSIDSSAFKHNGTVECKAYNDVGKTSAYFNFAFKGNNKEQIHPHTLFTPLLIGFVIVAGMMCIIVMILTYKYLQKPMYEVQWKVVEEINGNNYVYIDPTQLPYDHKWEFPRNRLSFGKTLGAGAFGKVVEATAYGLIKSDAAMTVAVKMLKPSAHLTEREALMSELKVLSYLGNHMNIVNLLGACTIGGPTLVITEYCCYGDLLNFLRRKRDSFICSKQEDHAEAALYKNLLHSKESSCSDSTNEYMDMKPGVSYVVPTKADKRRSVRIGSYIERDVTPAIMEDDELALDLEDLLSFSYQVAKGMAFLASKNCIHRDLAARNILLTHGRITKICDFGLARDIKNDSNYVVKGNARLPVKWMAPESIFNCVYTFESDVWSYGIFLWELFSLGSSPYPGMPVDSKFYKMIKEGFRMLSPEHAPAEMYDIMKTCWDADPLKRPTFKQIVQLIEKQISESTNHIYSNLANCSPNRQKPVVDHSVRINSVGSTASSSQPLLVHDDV

[7] = system: Streptococcus; assay: Group A Streptococcus viability loss, dose response, counter-screen for streptokinase expression inhibitor project, luminescence, BacTiterGlo (AID 1915); assay type: functional, organism-based;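 note: potency for reduction of bacterial viability or growth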
[8] = biological target: Genome polyprotein (dengue virus type 2, UniProt P29990); assay: Dengue-2 NS5 methyltransferase inhibitors, primary screen, biochemical, confirmation dose response (AID 588689); assay type: functional
Sequence of Genome polyprotein (P29990 2492-3391 limits assumed): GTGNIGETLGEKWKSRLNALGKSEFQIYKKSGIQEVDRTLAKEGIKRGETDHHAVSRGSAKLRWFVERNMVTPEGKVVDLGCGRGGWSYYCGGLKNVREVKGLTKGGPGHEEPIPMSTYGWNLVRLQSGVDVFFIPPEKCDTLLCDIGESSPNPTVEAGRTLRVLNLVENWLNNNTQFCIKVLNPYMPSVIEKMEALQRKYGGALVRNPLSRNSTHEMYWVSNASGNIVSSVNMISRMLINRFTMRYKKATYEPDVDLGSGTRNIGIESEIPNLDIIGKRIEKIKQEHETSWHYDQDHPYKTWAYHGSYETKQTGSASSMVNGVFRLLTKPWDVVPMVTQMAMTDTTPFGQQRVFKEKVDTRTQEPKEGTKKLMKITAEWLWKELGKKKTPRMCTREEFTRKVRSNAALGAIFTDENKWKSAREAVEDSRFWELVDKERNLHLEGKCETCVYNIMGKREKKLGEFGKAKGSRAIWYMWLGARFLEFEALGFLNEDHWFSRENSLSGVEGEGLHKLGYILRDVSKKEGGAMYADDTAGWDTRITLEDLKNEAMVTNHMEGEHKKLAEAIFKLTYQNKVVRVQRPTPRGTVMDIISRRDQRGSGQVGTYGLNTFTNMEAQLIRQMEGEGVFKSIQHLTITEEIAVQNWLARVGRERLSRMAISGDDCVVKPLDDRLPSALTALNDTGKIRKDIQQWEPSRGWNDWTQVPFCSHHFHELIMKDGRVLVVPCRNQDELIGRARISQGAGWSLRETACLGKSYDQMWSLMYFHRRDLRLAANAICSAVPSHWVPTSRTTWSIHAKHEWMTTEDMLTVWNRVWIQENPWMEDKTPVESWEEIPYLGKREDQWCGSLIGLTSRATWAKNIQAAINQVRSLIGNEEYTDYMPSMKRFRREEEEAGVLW

[9] = Intein inhibitors as potential Tuberculosis drugs, a cytotoxicity screen. [Related pubchem assays (depositor defined):AID2221, AID2223, AID434968, AID435010, AID449749, AID449750, AID489010]; assay type: functional
[10] = biological target: Beta-galactosidase (Escherichia coli, UniProt Q8VNN2); assay: beta-galactosidase enzyme inhibitors and activators, dose response, artefact control for CCR6 antagonist project, biochemical, E. coli enzyme, set 3 (AID 504712); assay type: functional
[11] = biological target: Heat shock protein HSP 90-alpha (Homo sapiens, UniProt P07900); assay: Luminescence-based dose response biochemical high throughput screening assay for inhibitors of the Heat Shock Protein 90 (HSP90). [Related pubchem assays: 1831 (Summary AID.), 1846 (Confirmation screen.), 1789 (Primary screen.)]
[12] = biological target: T1, Heat shock factor protein 1 (Mus musculus, UniProt P38532); assay: inhibition of MG132-induced HSE-luciferase signal, confirmation, cell-based, NIH3T3, luminescence, dose retest (AID 2382); assay type: functional;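 note: NIH3T3 fibroblasts with HSF1-driven luciferase reporter stressed by proteasome inhibitor MG132; luminescence from HSF1-driven luciferase expression after 8 hours of MG132 stress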
T1 sequence (P38532 whole entry): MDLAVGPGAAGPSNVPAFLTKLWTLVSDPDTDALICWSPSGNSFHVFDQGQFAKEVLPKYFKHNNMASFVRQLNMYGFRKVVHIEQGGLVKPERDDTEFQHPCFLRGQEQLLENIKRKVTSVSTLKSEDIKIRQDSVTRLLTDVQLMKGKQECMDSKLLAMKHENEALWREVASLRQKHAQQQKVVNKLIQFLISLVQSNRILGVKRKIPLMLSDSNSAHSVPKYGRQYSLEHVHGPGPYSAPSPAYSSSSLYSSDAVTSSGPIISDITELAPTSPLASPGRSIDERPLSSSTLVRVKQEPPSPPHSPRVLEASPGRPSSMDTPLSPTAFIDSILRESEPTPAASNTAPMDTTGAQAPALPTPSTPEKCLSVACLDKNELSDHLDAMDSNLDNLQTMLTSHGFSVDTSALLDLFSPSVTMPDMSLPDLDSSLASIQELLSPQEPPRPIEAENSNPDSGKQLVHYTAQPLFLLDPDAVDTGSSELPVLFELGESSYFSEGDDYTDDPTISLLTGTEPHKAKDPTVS

[13] = ZM109 Env clade C HIV-1 fusion inhibitors, dose response, HeLa effector, CEM target cells, luciferase, cherry-pick (AID 652058); assay type: functional, cell-based
[14] = system: Streptococcus sp. 'group A'; assay: growth inhibition of control SK(-) GAS strain, dose response, counter-screen for streptokinase expression inhibitor project, luminescence, kanamycin, BacTiterGlo, confirmation (AID 1900); assay type: functional, organism-based
[15] = biological target: Mitochondrial peptide methionine sulfoxide reductase (Bos taurus, UniProt P54149); assay type: functional;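 note: absorbance read-out, biochemical high-throughput dose-response screen for MsrA inhibitors, confirmatory; recombinant bovine MsrA coupled to E. coli TrxB with NADPH and selenocystamine; potency is for inhibitors of MsrA activity on DMSO substrate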
Sequence of Mitochondrial peptide methionine sulfoxide reductase (P54149 whole entry, the tested form may be a part): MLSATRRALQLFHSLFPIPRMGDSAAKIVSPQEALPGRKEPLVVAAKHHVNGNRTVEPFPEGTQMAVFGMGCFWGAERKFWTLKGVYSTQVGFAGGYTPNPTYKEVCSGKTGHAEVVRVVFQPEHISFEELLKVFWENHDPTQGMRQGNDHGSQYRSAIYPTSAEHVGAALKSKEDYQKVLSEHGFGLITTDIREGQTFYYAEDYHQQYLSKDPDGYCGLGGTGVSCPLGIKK

[16] = inhibitors of HIV Env-driven cell fusion, dose response, cherry-pick (AID 652057); assay type: functional, cell-based
[17] = system: SN12K1; assay: cells; assay type: functional; conditions: Homo sapiens
[18] = system: P388/ADR; assay: cells; assay type: functional; conditions: Mus musculus
[19] = system: BJ; assay: cytotoxicity toward BJ-TERT-LT-ST fibroblasts, dose response, cell-based, RAS-independent, luminescence (AID 1935); assay type: functional; conditions: Homo sapiens;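 note: BJ fibroblasts immortalized with TERT plus LT and ST oncogenes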
[20] = cytotoxicity toward DRD oncogenic fibroblasts, dose response, cell-based, non-viral oncogenic, luminescence (AID 1934); assay type: functional; conditions: Homo sapiens
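Throughout, for CC50: cells exposed to compound for 72 hours before luminescence readout.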

Sequence of Tyrosyl-DNA phosphodiesterase 2 (O95551 whole entry): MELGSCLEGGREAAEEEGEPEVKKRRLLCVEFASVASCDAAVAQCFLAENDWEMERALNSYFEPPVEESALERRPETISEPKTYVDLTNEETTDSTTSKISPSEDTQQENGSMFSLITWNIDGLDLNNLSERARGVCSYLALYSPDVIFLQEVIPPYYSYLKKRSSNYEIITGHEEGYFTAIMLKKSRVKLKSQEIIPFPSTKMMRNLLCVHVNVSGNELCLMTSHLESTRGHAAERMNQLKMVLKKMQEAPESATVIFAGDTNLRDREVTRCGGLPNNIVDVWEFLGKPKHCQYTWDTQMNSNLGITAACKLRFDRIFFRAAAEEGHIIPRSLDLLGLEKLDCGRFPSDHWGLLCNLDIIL
Sequence of Serine/threonine-protein kinase Nek2 (P51955 whole entry, the tested form may be a part): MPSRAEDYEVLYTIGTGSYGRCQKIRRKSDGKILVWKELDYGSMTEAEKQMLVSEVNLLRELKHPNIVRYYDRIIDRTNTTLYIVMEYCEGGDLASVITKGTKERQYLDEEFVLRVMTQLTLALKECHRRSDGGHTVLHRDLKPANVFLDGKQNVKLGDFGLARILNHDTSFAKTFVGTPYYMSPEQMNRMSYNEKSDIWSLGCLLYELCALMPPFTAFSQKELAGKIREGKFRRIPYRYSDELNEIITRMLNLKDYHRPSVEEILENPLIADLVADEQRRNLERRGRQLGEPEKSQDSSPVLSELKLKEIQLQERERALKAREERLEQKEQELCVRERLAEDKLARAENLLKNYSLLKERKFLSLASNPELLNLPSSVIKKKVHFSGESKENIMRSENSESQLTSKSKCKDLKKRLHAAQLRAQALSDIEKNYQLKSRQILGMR

With `O=C(Cc1ccccc1)NC1(O)C(=O)c2ccccc2C1=O` the IC50 [1] was 13.2 µM (inactive).
For `O=C(Nc1cccc(C(F)(F)F)n1)Nc1ccnc2cc(OC(F)F)ccc12`, the Ki [2] was > 3.16 µM (inactive) and the Ki [3] was > 3.16 µM (inactive).
For `CCC1CC(NS(=O)(=O)C2CC2)CC1c1ncc2cnc3[nH]ccc3n12` (stereo not given), the Ki [4] was 0.158 µM (active), the Ki [5] was > 3.16 µM (inactive) and the Ki [6] was > 6.31 µM (inactive).
With `Cc1cc(C)c(S(=O)(=O)/N=C2\C=C(Nc3ccc(C(=O)O)cc3)C(=O)c3ccccc32)c(C)c1` the EC50 [7] was 2.6 µM (active), the IC50 [8] was 21.2 µM (active) and the CC50 [9] was 7.89 µM (active). The IC50 [10] was 36.1 µM (active), the IC50 [11] was 1.68 µM (active) and the EC50 [12] was 6.73 µM (active). For the same compound, the AC50 [13] was 6.51 µM (active), the EC50 [14] was 0.561 µM (active) and the IC50 [15] was 44.8 µM (inactive). For the same compound, the AC50 [16] was 12.4 µM (active).
In the case of `COC(=O)c1nc(-c2ccc3c(n2)C(=O)C(=N)C(OC)=C3O)c(N)c(-c2ccc(OC)c(OC)c2O)c1C`, the GI50 [17] is reported as 0.537 µM (active), the GI50 [18] is reported as 1.4 µM (inactive) and the EC50 [19] is reported as 10.3 µM (active). For the same compound, the EC50 [20] was 13.9 µM (active).
